Experimental data as given in PubChem BioAssay AID1259407 (Chemical Carcinogenesis Research Information System (CCRIS), 2018).
Activity calls are given as the source filed them. No rule for the calls is given here.

Tested on: CCRIS mutagenicity, Ames/micronucleus/aberration tests
Assay: CCRIS mutagenicity studies

SMILES: Nc1ccc(-c2ccccc2)cc1
- mutagenic call (Test System: AMES SALMONELLA TYPHIMURIUM, Strain/Indicator: TA100, Metabolic Activation: TOBACCO CELL-FREE TXIMX, Method: PREINCUBATION): active; positive
- mutagenic call (Test System: AMES SALMONELLA TYPHIMURIUM, Strain/Indicator: TA1535, Metabolic Activation: NONE, Method: STANDARD PLATE): inactive; negative
- mutagenic call (Test System: AMES SALMONELLA TYPHIMURIUM, Strain/Indicator: TA1537, Metabolic Activation: RAT, LIVER, S-9, AROCLOR 1254, Method: STANDARD PLATE): active; positive
- mutagenic call (Test System: AMES SALMONELLA TYPHIMURIUM, Strain/Indicator: TA1538, Metabolic Activation: GUINEA PIG, LIVER, INTACT HEPATOCYTES, Method: PREINCUBATION): active; positive
- mutagenic call (Test System: AMES SALMONELLA TYPHIMURIUM, Strain/Indicator: TA1538, Metabolic Activation: GUINEA PIG, LIVER, S-9, ACETYL COENZYME A, Method: PREINCUBATION): active; positive
- mutagenic call (Test System: AMES SALMONELLA TYPHIMURIUM, Strain/Indicator: TA1538, Metabolic Activation: GUINEA PIG, LIVER, S-9, Method: PREINCUBATION): active; positive
- mutagenic call (Test System: AMES SALMONELLA TYPHIMURIUM, Strain/Indicator: TA1538, Metabolic Activation: HAMSTER, LIVER, INTACT HEPATOCYTES, Method: PREINCUBATION): inactive; negative
- mutagenic call (Test System: AMES SALMONELLA TYPHIMURIUM, Strain/Indicator: TA1538, Metabolic Activation: HAMSTER, LIVER, S-9, ACETYL COENZYME A, Method: PREINCUBATION): active; positive
- mutagenic call (Test System: AMES SALMONELLA TYPHIMURIUM, Strain/Indicator: TA1538, Metabolic Activation: HAMSTER, LIVER, S-9, Method: PREINCUBATION): active; positive
- mutagenic call (Test System: AMES SALMONELLA TYPHIMURIUM, Strain/Indicator: TA1538, Metabolic Activation: RAT, LIVER, INTACT HEPATOCYTES, Method: PREINCUBATION): active; positive
- mutagenic call (Test System: AMES SALMONELLA TYPHIMURIUM, Strain/Indicator: TA1538, Metabolic Activation: RAT, LIVER, S-9, ACETYL COENZYME A, Method: PREINCUBATION): active; positive
- mutagenic call (Test System: AMES SALMONELLA TYPHIMURIUM, Strain/Indicator: TA1538, Metabolic Activation: RAT, LIVER, S-9, AROCLOR 1254, Method: STANDARD PLATE): active; positive
- mutagenic call (Test System: AMES SALMONELLA TYPHIMURIUM, Strain/Indicator: TA1538, Metabolic Activation: RAT, LIVER, S-9, KC500 OR PHENOBARBITAL, Method: LIQUID SUSPENSION): active; positive
- mutagenic call (Test System: AMES SALMONELLA TYPHIMURIUM, Strain/Indicator: TA1538, Metabolic Activation: RAT, LIVER, S-9, PHENOBARBITAL, Method: STANDARD PLATE): active; positive
- mutagenic call (Test System: AMES SALMONELLA TYPHIMURIUM, Strain/Indicator: TA1538, Metabolic Activation: RAT, LIVER, S-9, Method: PREINCUBATION): active; positive
- mutagenic call (Test System: AMES SALMONELLA TYPHIMURIUM, Strain/Indicator: YG1021, Metabolic Activation: TOBACCO CELL-FREE TXIMX, Method: PREINCUBATION): active; positive
- mutagenic call (Test System: AMES SALMONELLA TYPHIMURIUM, Strain/Indicator: YG1021, Metabolic Activation: TOBACCO TX1 CELLS, Method: PREINCUBATION): active; positive
- mutagenic call (Test System: AMES SALMONELLA TYPHIMURIUM, Strain/Indicator: YG1024, Metabolic Activation: HUMAN, UROEPITHELIAL CELL, MICROSOMES, Method: PREINCUBATION): active; positive
- mutagenic call (Test System: AMES SALMONELLA TYPHIMURIUM, Strain/Indicator: YG1024, Metabolic Activation: PLANT CELLS, Method: PREINCUBATION): active; positive
- mutagenic call (Test System: AMES SALMONELLA TYPHIMURIUM, Strain/Indicator: YG1024, Metabolic Activation: TOBACCO CELL-FREE EXTRACT, Method: PREINCUBATION): active; positive
- mutagenic call (Test System: AMES SALMONELLA TYPHIMURIUM, Strain/Indicator: YG1024, Metabolic Activation: TOBACCO CELL-FREE TXIMX, Method: PREINCUBATION): active; positive
- mutagenic call (Test System: AMES SALMONELLA TYPHIMURIUM, Strain/Indicator: YG1024, Metabolic Activation: TOBACCO TX1 CELLS, Method: PREINCUBATION): active; positive
- mutagenic call (Test System: AMES SALMONELLA TYPHIMURIUM, Strain/Indicator: YG1026, Metabolic Activation: TOBACCO CELL-FREE TXIMX, Method: PREINCUBATION): active; positive
- mutagenic call (Test System: AMES SALMONELLA TYPHIMURIUM, Strain/Indicator: YG1026, Metabolic Activation: TOBACCO TX1 CELLS, Method: PREINCUBATION): inactive; negative
- mutagenic call (Test System: AMES SALMONELLA TYPHIMURIUM, Strain/Indicator: YG1029, Metabolic Activation: MOUSE LIVER S-9, AROCLOR 1254, 10%, Method: PREINCUBATION): active; positive
- mutagenic call (Test System: AMES SALMONELLA TYPHIMURIUM, Strain/Indicator: YG1029, Metabolic Activation: RAT LIVER S-9, AROCLOR 1254, 10%, Method: PREINCUBATION): active; positive
- mutagenic call (Test System: AMES SALMONELLA TYPHIMURIUM, Strain/Indicator: YG1029, Metabolic Activation: TOBACCO CELL-FREE EXTRACT, Method: PREINCUBATION): active; positive
- mutagenic call (Test System: AMES SALMONELLA TYPHIMURIUM, Strain/Indicator: YG1029, Metabolic Activation: TOBACCO CELL-FREE TXIMX, Method: PREINCUBATION): active; positive
- mutagenic call (Test System: AMES SALMONELLA TYPHIMURIUM, Strain/Indicator: YG1029, Metabolic Activation: TOBACCO TX1 CELLS, Method: PREINCUBATION): active; positive
- mutagenic call (Test System: Ames Salmonella Typhimurium, Strain/Indicator: TA102, Metabolic Activation: None, Method: Preincubation): inactive; negative
- mutagenic call (Test System: Ames Salmonella typhimurium, Strain/Indicator: TA102, Metabolic Activation: Rat, liver, S-9, Aroclor 1254, 4%, Method: Preincubation): active; positive
- mutagenic call (Test System: CHINESE HAMSTER OVARY, Strain/Indicator: CHO-K1-BH4 (HGPRT), Metabolic Activation: RAT, LIVER, S-9, AROCLOR, Method: SUSPENSION/PLATE): active; positive
- mutagenic call (Test System: E. COLI, Strain/Indicator: WP2 UVRA(P), Metabolic Activation: NONE, Method: STANDARD PLATE): inactive; negative
- mutagenic call (Test System: E. COLI, Strain/Indicator: WP2 UVRA, Metabolic Activation: NONE, Method: FLUCTUATION TEST): inactive; negative
- mutagenic call (Test System: UDS RODENT HEPATOCYTES, Strain/Indicator: THY INCORP (NON-S-PHASE), Method: AUTORADIOGRAPHY): active; positive
